Measurements: ChEMBL document CHEMBL3045372, “Biososteric Replacement in the Design and Synthesis of Ligands for Nicotinic Acetylcholine Receptors” (Med Chem Res, 2005)

How the values were obtained:
[1] = molecular target: T1, Neuronal acetylcholine receptor; alpha4/beta2 (Homo sapiens, UniProt P17787+P43681); experiment: Displacement of [3H]nicotine from Homo sapiens (human) alpha4beta2 nicotinic acetylcholine receptor expressed in Homo sapiens (human) SH-EP1 cells after 2.5 min by scintillation counting; format: cell-based
T1 sequence (P17787 whole entry): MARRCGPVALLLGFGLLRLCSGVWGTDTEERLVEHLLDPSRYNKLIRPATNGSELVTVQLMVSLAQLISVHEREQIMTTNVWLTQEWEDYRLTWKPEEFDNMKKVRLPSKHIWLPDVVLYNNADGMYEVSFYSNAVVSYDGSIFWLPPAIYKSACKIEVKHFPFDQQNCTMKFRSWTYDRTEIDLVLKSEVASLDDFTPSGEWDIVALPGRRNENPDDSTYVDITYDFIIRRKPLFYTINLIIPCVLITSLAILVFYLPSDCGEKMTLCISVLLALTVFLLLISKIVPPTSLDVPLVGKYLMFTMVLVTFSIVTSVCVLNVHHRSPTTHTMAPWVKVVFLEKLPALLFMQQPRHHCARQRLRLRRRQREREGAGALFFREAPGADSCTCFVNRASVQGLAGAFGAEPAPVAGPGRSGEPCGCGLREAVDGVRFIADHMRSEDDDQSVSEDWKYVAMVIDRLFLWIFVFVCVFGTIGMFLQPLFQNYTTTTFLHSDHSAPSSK
T1 sequence (P43681 whole entry): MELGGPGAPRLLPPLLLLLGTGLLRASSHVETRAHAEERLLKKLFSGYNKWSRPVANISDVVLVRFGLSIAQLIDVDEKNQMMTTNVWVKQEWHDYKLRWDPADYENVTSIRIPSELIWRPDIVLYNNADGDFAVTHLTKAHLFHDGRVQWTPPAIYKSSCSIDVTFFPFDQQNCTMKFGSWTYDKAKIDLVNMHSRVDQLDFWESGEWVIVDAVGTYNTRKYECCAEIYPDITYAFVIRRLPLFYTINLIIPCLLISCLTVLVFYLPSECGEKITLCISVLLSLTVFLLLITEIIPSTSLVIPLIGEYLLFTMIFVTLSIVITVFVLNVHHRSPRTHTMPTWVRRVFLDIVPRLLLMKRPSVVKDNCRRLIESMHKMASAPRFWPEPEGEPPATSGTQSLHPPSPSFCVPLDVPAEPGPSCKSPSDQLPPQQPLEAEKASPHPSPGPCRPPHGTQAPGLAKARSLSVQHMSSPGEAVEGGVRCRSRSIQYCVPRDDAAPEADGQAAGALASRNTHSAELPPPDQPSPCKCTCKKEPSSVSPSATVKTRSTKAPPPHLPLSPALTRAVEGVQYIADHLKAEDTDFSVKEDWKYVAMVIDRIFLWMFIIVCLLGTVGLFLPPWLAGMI

[2] = molecular target: Neuronal acetylcholine receptor; alpha4/beta2 (Rattus norvegicus) (UniProt P09483+P12390); experiment: Displacement of [3H]cytisine from alpha4beta2 nicotinic acetylcholine receptor in Rattus norvegicus (rat) cerebral cortex at 10 uM after 75 min by scintillation counting; format: tissue-based
[3] = molecular target: T1, Neuronal acetylcholine receptor; alpha4/beta2; experiment: Inhibition of alpha4beta2 nicotinic acetylcholine receptor (unknown origin); format: protein-complex assay

Row | SMILES | inhibition [2] | Ki ([1]; read-out: Ki) | also measured
1 | CC(C)N(CCOc1cccnc1)C(C)C | 64% | 11200 nM | inhibition [1]: Dose-dependent effect
2 | CN(C)CCOc1cccc([N+](=O)[O-])c1 | 33% | 3390 nM | –
3 | CN(C)CCOc1cccnc1 | 95% | 300 nM | –
4 | CN(C)CCOc1cccc(O)c1 | – | 360 nM | –
5 | Oc1cccc(OC[C@@H]2CC3CCN2CC3)c1 | – | – | Ki [3]: 4 nM
6 | CN(C)CCOc1cncc(Cl)c1 | 84% | 450 nM | –
7 | O=[N+]([O-])c1cccc(OC[C@@H]2CC3CCN2CC3)c1 | – | – | Ki [3]: 734 nM

Further lines, with some results ahead:

Row | inhibition [2] | SMILES | Ki ([1]; read-out: Ki) | also measured
8 | 0% | CC(C)N(CCOc1cccc([N+](=O)[O-])c1)C(C)C | – | –
9 | 0% | c1ccc(N(CCOc2cccnc2)c2ccccc2)cc1 | – | –
10 | 0% | Cc1c(O)cccc1OCCN(c1ccccc1)c1ccccc1 | – | –
11 | 0% | Oc1cccc(OCCN(c2ccccc2)c2ccccc2)c1 | – | –
12 | 0% | CC(C)N(CCOc1cccc(O)c1)C(C)C | – | –
13 | 0% | O=[N+]([O-])c1cccc(OCCN(c2ccccc2)c2ccccc2)c1 | – | –
14 | 21% | CCCN(CCC)CCOc1cccc([N+](=O)[O-])c1 | – | Ki ([1]; sh-ep1): Not Active
